This is an account of results in US9926330B2, “Inhibitors of IRAK4 activity” (MERCK SHARP & DOHME CORP., priority 2014, dated 2018).

Sequence of GST tagged IRAK4 (Q9NWZ3 whole entry): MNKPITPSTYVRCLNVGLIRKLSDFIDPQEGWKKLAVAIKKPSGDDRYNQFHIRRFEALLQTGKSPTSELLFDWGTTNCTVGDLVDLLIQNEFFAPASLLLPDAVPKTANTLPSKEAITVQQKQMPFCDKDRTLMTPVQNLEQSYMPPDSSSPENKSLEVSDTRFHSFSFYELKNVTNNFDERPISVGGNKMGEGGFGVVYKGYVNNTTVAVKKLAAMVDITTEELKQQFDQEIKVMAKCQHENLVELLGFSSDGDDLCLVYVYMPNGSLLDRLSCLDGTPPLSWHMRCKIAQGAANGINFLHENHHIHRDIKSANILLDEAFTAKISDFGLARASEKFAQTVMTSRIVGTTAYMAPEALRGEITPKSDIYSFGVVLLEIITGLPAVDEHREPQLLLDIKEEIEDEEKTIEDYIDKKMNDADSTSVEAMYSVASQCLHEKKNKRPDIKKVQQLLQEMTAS

The target in the experiment is GST tagged IRAK4 (Homo sapiens (Human), UniProt Q9NWZ3). Nature of the experiment: IRAK4 Kinase Assay (IMAP fluorescence polarization). It is filed as biochemical. As to conditions: 0.5 nM GST tagged IRAK4, 100 nM fluorescent peptide substrate RP7030, 100 μM ATP, 30 minutes at 25° C., IMAP FP readout. As to the method:
The kinase activity of IRAK4 is determined by its ability to catalyze the phosphorylation of a fluorescent polypeptide substrate. The extent of phosphorylation is measured using the IMAP technology (Molecular Devices) where the phosphorylated fluorescent substrate binds to the large M(III)-based nanoparticles which reduces the rotational speed of the substrate and thus increases its fluorescent polarization (FP).
20 μL reaction mixture contains 10 mM TriHCl, pH 7.2, 0.5 nM GST tagged IRAK4 (SignalChem), 100 nM fluorescent peptide substrate (RP7030, Molecular Devices), 100 μM ATP, 1 mM DDT, 1 mM MgCl2, and 0.01% Tween 20. The reaction is initiated by the addition of ATP. After incubation for 30 minutes at 25° C., 60 μL of Progressive IMAP Reagent (Molecular Devices) is added to stop the reaction. Change in RP7030's FP is determined by a FP reader (Analyst HT, LJL BioSystems).
For `Cc1ccc2ncnc(N[C@H]3CC[C@H](N[C@@H](C)CS(C)(=O)=O)CC3)c2c1` [Example 2-31, trans-N-[(1S)-1-methyl-2-(methylsulfonyl)ethyl]-N′-(6-methylquinazolin-4-yl)cyclohexane-1,4-diamine], the concentration for half-maximal inhibition (IC50) was 56 nM.
For `CN(C)[C@H]1CC[C@H](Nc2ncnc3ccc(/C=C/C4CC4)cc23)CC1` [Example 3-1, (trans)-N1-(6-((E)-2-cyclopropylvinyl)quinazolin-4-yl)-N4,N4-dimethylcyclohexane-1,4-diamine], it took 145 nM to reach half-maximal inhibition (IC50).
Then `C=Cc1ccc2ncnc(NC3CCC(N(C)C)CC3)c2c1` (stereo not drawn) [Example 3-2, N′-(6-ethenylquinazolin-4-yl)-N,N-dimethylcyclohexane-1,4-diamine], with 7 nM; and `COC/C=C/c1ccc2ncnc(N[C@H]3CC[C@H](N(C)C)CC3)c2c1` [Example 3-3, trans-N′-{6-[(1E)-3-methoxyprop-1-en-1-yl]quinazolin-4-yl}-N,N-dimethylcyclohexane-1,4-diamine], with 54 nM; and `CCc1ccc2ncnc(N[C@H]3CC[C@H](N4CCOCC4)CC3)c2c1` [Example 3-4, 6-ethyl-N-(trans-4-morpholin-4-ylcyclohexyl)quinazolin-4-amine], with 8 nM.
With `N#CCCCc1ccc2ncnc(N[C@H]3CC[C@H](N4CCOCC4)CC3)c2c1` [Example 3-5, 4-(4-(((trans)-4-morpholinocyclohexyl)amino)quinazolin-6-yl)butanenitrile], the IC50 was found to be 142 nM.
`CCc1ccc2ncnc(N[C@H]3CC[C@H](N(C)C)CC3)c2c1` [Example 4-1, (trans)-N1-(6-ethylquinazolin-4-yl)-N4,N4-dimethylcyclohexane-1,4-diamine] displayed an IC50 of 18 nM.
Molecule `CC(C)c1ccc2ncnc(NC3CCC(N(C)C)CC3)c2c1` (stereo not drawn) [Example 4-2, N,N-dimethyl-N′-[6-(1-methylethyl)quinazolin-4-yl]cyclohexane-1,4-diamine] returned an IC50 of 16 nM.
In the case of `CCCCc1ccc2ncnc(N[C@H]3CC[C@H](N4CCOCC4)CC3)c2c1` [Example 4-3, 6-butyl-N-(trans-4-morpholin-4-ylcyclohexyl)quinazolin-4-amine] it was 34 nM; in that of `CCCc1ccc2ncnc(N[C@H]3CC[C@H](N4CCOCC4)CC3)c2c1` [Example 4-4, N-(trans-4-morpholin-4-ylcyclohexyl)-6-propylquinazolin-4-amine], 11 nM.
As for `CN(C)[C@H]1CC[C@H](Nc2ncnc3ccc(CCO)cc23)CC1` [Example 5-1, 2-(4-(((trans)-4-(dimethylamino)cyclohexyl)amino)quinazolin-6-yl)ethan-1-ol], the midpoint of inhibition, the IC50, lay at 17 nM.
In the case of `OCCCc1ccc2ncnc(N[C@H]3CC[C@H](N4CCOCC4)CC3)c2c1` [Example 5-2, 3-{4-[(trans-4-morpholin-4-ylcyclohexyl)amino]quinazolin-6-yl}propan-1-ol] it was 10 nM.
Then `OCCCCc1ccc2ncnc(N[C@H]3CC[C@H](N4CCOCC4)CC3)c2c1` [Example 5-3, 4-{4-[(trans-4-morpholin-4-ylcyclohexyl)amino]quinazolin-6-yl}butan-1-ol], with 68 nM; and `CC(O)c1ccc2ncnc(N[C@H]3CC[C@H](N(C)C)CC3)c2c1` (stereo partly drawn) [Example 5-4, 1-(4-{[trans-4-(dimethylamino)cyclohexyl]amino}quinazolin-6-yl)ethanol], with 29 nM.
Then `Cc1ccc2ncnc(N[C@H]3CC[C@H](N4CCS(=O)(=O)CC4)CC3)c2c1` [Example 6-1, 4-((trans)-4-((6-methylquinazolin-4-yl)amino)cyclohexyl)thiomorpholine-1,1-dioxide], with 623 nM; and `Cc1ccc2ncnc(N[C@H]3CC[C@H](N4CC5(COC5)C4)CC3)c2c1` [Example 6-2, N-((trans)-4-(2-oxa-6-azaspiro[3.3]heptan-6-yl)cyclohexyl)-6-methylquinazolin-4-amine], with 101 nM; and `CC(O)CCc1ccc2ncnc(N[C@H]3CC[C@H](N4CCOCC4)CC3)c2c1` (stereo partly drawn) [Example 7-1, 4-(4-(((trans)-4-Morpholinocyclohexyl)amino)quinazolin-6-yl)butan-2-ol], with 62 nM.
As to `CN(C)[C@H]1CC[C@H](Nc2ncnc3ccc(CO)cc23)CC1` [Example 8-1, (4-(((trans)-4-(dimethylamino)cyclohexyl)amino)quinazolin-6-yl)methanol], the half-maximal inhibitory concentration (IC50) was 29 nM.
